Experimental data: patent US8110571B2, “Benzimidazole and benzothiazole derivatives, method for preparing same, use thereof as drugs, pharmaceutical compositions and novel use especially as c-MET inhibitors” (Aventis Pharma S.A., priority 2005, dated 2012)
Counter-ions that a name gives are not always drawn.

Structure (SMILES)	melting point
O=C(NCCN1CCCCCC1)Nc1nc2ccc(OS(=O)(=O)c3c(Cl)cccc3Cl)cc2s1 (as salt: benzenesulfonate) [Example 76, 2-{[(2-azepan-1-ylethyl)carbamoyl]amino}-1,3-benzothiazol-6-yl 2,6-dichlorobenzenesulfonate]	146 °C
O=C(NCc1cccnc1)Nc1nc2ccc(OS(=O)(=O)c3c(Cl)cccc3Cl)cc2s1 (as salt: benzenesulfonate) [Example 78, 2-{[(pyridin-3-ylmethyl)carbamoyl]amino}-1,3-benzothiazol-6-yl 2,6-dichlorobenzenesulfonate]	227 °C
O=C(NCCC1CCNCC1)Nc1nc2ccc(OS(=O)(=O)c3c(Cl)cccc3Cl)cc2s1 (as salt: trifluoroacetic acid salt) [Example 35, 2-{[(2-Piperidin-4-ylethyl)carbamoyl]amino}-1,3-benzothiazol-6-yl 2,6-dichlorobenzenesulfonate]	240 °C
Cc1cccc(Cl)c1S(=O)(=O)Oc1ccc2[nH]c(NC(=O)NCCN3CCOCC3)nc2c1 [Example 11, 2-{[(2-Morpholin-4-ylethyl)carbamoyl]amino}-1H-benzimidazol-5-yl 2-chloro-6-methylbenzenesulfonate]	168 °C
Nc1cc(Cl)cc(Cl)c1S(=O)(=O)Oc1ccc2nc(NC(=O)NCCN3CCOCC3)sc2c1 [Example 39, 2-{[(2-Morpholin-4-ylethyl)carbamoyl]amino}-1,3-benzothiazol-6-yl 2-amino-4,6-dichlorobenzenesulfonate]	128 °C
